Measurements as given in US8735590B2, “Bicyclo-heptan-2-amines” (priority 2011, dated 2014).

How the values were obtained:
N2a cells = assay: MTT cell viability assay in N2a cells; assay type: cell-based, Mouse; details: 10-500 μM, FIG. 4A
Source text: (§1) We evaluated the effect of compounds 5a, 5b and 5c on cell viability in the neuronal cell line N2a and in the Madin-Darby canine kidney (MDCK) cell line, a blood-brain barrier model. Memantine, an NMDA glutamate receptor antagonist, was used as a negative control.
(§2) Mouse Neuro-2a (CCL-131, ATCC) and MDCK (CCL-34, ATCC) were routinely propagated using Eagle's Minimum Essential Medium (EMEM, ATCC), supplemented with 10% fetal bovine serum (FBS, ATCC) and 1% penicillin/streptomycin (Gibco) in 100 cm^2 Petri-dishes (Corning) at 37° C. in 5% CO2. Compounds 5a, 5b and 5c were obtained as salts. Stock solutions (1 mM) were prepared in double distilled water. The treatment concentrations for the compounds and the memantine control were 10, 50, 100, 200, 300, and 500 μM. Cells were allowed to attach overnight prior to treatment. H2O2 served as positive control. Working concentrations were prepared immediately prior to treatment by dilution into medium.
(§3) Cell viability was assayed using the MTT (3-(4,5-dimethylthiazole-2-yl)-2,5-diphenyltetrazoliumbromide) assay (ATCC) according to manufacturer's instructions. Cells were plated at a concentration of 13,000 to 20,000 cells/well on a 96-well round-bottom plate. MTT assay. The following determinants were optimized for each cell line: plating cell concentration; incubation time with MTT reagent, and incubation time with detergent reagent. Absorbance was recorded at 570 nm by a microtiter plate reader (VICTOR^3, PerkinElmer). This experiment was repeated on three separate occasions and results were presented as the mean absorbance±SD.

MES-induced seizures = assay: Maximal Electroshock Test (MES), tonic-clonic seizure model; assay type: in vivo; details: mice
Procedure: Compounds 5a, 5b and 5c were evaluated in for the ability to modulate seizures using the Maximal Electroshock Test (MES), a model for generalized tonic-clonic seizures that can provide an indication of a compound's ability to prevent seizure spread when all neuronal circuits in the brain are maximally active. For all tests based on MES convulsions, 60 Hz of alternating current (50 mA in mice) was delivered for […] by corneal electrodes which had been primed with an electrolyte solution containing an anesthetic agent (0.5% tetracaine HCL). Mice were tested at various intervals following doses of 30, 100 and 300 mg/kg of test compound given by i.p. injection of a volume of 0.01 mUg. An animal was considered “protected” from MES-induced seizures upon abolition of the hindlimb tonic extensor component of the seizure. Compound 5c was active at 100 and 300 mg/kg.

Sigma-2 receptor = target: T1, Sigma-2 receptor (Rattus norvegicus, UniProt Q5U3Y7); assay: NIMH-PDSP receptor binding, Sigma-2 (radioligand DTG, PC12)
T1 construct: endogenous in cells
T1 sequence (Q5U3Y7 1-176): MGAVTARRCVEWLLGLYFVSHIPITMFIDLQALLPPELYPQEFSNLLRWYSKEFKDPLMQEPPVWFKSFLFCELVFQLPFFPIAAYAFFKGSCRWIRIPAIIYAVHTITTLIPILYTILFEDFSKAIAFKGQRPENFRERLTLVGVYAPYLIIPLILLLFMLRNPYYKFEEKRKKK
Procedure: (§4) Compounds 5a, 5b and 5c were accepted into the National Institute of Mental Health Psychoactive Drug Screening Program, NIMH-PDSP, National Institutes of Health (NIH). Each compound was evaluated for affinity at human or rat receptors. Sites to be evaluated were chosen based on known or suspected sites of interaction with related compounds. The receptors evaluated, radio-labeled ligand, species and receptor source are depicted in Table 1. Experimental details and procedure can be found through Assay Protocol Book, National Institute of Mental Health Psychoactive Drug Screening Program, University of North Carolina at Chapel Hill.

MCF-7 cells = assay: MTT cell viability assay in MCF-7 breast carcinoma cells; assay type: cell-based, human; details: 24 hours; for effect on cell viability in MCF-7 cells: MTT assay, 10 μM to 500 μM, FIG. 6; for percent survival of untreated control cells: MTT
Procedure: (§5) We also evaluated the effect of compounds 5a, 5b and 5c on the human glioma cell line U-138 and the human breast carcinoma cell line MCF-7. Doxorubicin, a clinically used anticancer compound, served as a positive control.
(§6) Cell viability was assayed using the MTT assay essentially as described in Example 8. Adherent cells were trypsinized and placed into 96-well flat bottom tissue culture plates in 100 μl of supplemented Dulbecco's Modified Eagles Media (DMEM) at 10,000 cells/well for 24 hours. Cells were treated with the compounds for 24 hours at concentrations ranging from 10 μM to 500 μM. Cells were incubated with MTT reagent for 4 hours followed with MTT detergent for 24 hours. Plates were read on a computerized microplate ELISA reader at an optical density of 570 nm. The percent cytotoxicity was determined by the ratio of treated optical densities to control optical densities (OD) from one and multiplying by 100. The concentration giving 50% cytotoxicity, IC50, was determined from the dose response curves for each cell line using the GraphPad Prism software package. Each experiment was performed three separate times and the data presented are the pooled results of the three experiments.

MDCK cells = assay: MTT cell viability assay in MDCK cells; assay type: cell-based, canine; details: 10-500 μM, FIG. 3A
Source text: as §1, §2, §3

Sigma-1 receptor = target: T2, Sigma-1 receptor (Rattus norvegicus, UniProt Q9R0C9); assay: NIMH-PDSP receptor binding, Sigma-1 (radioligand Pentazocine(+), brain)
T2 construct: from tissue; NIMH-PDSP)
T2 sequence (Q9R0C9 whole entry): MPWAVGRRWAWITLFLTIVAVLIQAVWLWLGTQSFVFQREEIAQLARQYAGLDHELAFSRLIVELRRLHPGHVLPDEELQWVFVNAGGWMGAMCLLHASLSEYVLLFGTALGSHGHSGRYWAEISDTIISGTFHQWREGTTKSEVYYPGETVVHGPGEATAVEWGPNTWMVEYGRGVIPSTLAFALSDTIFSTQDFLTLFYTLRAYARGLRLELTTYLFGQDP
Procedure: as §4

U-138 glioma cells = assay: MTT cell viability assay in U-138 glioma cells; assay type: cell-based, human; details: 24 hours, 10 μM to 500 μM, FIG. 5
Procedure: as §5, §6

SMILES: Fc1ccc(C2(NCCCOC3CCCCO3)CC3CCC2C3)cc1 (racemic) [Compound 5c, 2-(4-Fluorophenyl)-N-(3-(tetrahydro-2H-pyran-2-yloxy)propyl)bicyclo[2.2.1]heptan-2-amine]
- effect on cell viability in N2a cells (N2a cells): dose-dependent reduction in cell viability
- activity in MES test (protection from MES-induced seizures) (MES-induced seizures; 100 mg/kg i.p.): active
- activity in MES test (protection from MES-induced seizures) (MES-induced seizures; 300 mg/kg i.p.): active
- Ki (Sigma-2 receptor): 5.5 nM
- effect on cell viability in MCF-7 cells (MCF-7 cells): dose-dependent reduction in cell viability
- effect on cell viability in MDCK cells (MDCK cells): minimal effects on cell viability
- Ki (Sigma-1 receptor): > 10000 nM

SMILES: Fc1ccc(C2(NCCCN3CCCCC3)CC3CCC2C3)cc1 (racemic) [Compound 5b, (±)-2-(4-Fluorophenyl)-N-(3-(piperidin-1-yl)propyl)bicyclo[2.2.1]heptan-2-amine]
- effect on cell viability in U-138 glioma cells (U-138 glioma cells): dose-dependent effect on cell viability
- effect on cell viability in N2a cells (N2a cells): dose-dependent reduction in cell viability
- Ki (Sigma-2 receptor): 16 nM
- percent survival of untreated control cells (MCF-7 cells; 200 μM): 70%
- percent survival of untreated control cells (MCF-7 cells; 300 μM): 63%
- percent survival of untreated control cells (MCF-7 cells; 500 μM): 16%
- effect on cell viability in MCF-7 cells (MCF-7 cells): dose-dependent reduction in cell viability
- effect on cell viability in MDCK cells (MDCK cells): minimal effects on cell viability
- Ki (Sigma-1 receptor): > 10000 nM

SMILES: c1ccc(C2(NCCCN3CCCCC3)CC3CCC2C3)cc1 (racemic) [Compound 5a, (±)-2-Phenyl-N-(3-(piperidin-1-yl)propyl)bicyclo[2.2.1]heptan-2-amine]
- effect on cell viability in N2a cells (N2a cells): dose-dependent reduction in cell viability
- Ki (Sigma-2 receptor): 9.6 nM
- effect on cell viability in MCF-7 cells (MCF-7 cells): dose-dependent reduction in cell viability
- effect on cell viability in MDCK cells (MDCK cells): minimal effects on cell viability
- Ki (Sigma-1 receptor): > 10000 nM
